Measurements as given in patent US10738056B2 (Aduro BioTech, Inc., priority 2017, dated 2020).

Target: Human cGAS amino acids 155-522 (Homo sapiens (Human), UniProt Q8N884)
Assay: cGAS biochemical activity assay (ATP remaining, Kinase-Glo Max luminescence)
Settings: human cGAS 155-522, ATP remaining (Kinase-Glo Max); read-out: cGAS IC50

Human cGAS amino acids 155-522, sequence (Q8N884 157-522): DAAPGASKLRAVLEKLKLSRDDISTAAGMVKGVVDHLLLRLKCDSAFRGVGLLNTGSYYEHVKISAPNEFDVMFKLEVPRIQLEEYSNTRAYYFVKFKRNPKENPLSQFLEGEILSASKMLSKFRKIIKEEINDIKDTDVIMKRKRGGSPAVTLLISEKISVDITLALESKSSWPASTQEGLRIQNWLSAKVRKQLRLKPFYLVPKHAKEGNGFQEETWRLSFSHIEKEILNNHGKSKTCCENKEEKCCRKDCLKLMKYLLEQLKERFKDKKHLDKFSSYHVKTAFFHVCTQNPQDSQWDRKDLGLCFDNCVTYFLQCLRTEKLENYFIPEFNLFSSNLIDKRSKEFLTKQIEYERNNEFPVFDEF

Structure (SMILES) | IC50
CO[C@H]1CCCC1c1nnc(-c2c(C)[nH]c3c(-c4ccccc4)c(C(F)(F)F)nn3c2=O)o1 (stereo partly shown) [D1049 Iso-1] | < 20 µM
Cc1[nH]c2c(-c3ccccc3)c(C(F)(F)F)nn2c(=O)c1C(=O)Nc1ccccc1N1CCCCC1 [Compound A1055, 5-methyl-7-oxo-3-phenyl-N-(2-(piperidin-1-yl)phenyl)-2-(trifluoromethyl)-4,7-dihydropyrazolo[1,5-a]pyrimidine-6-carboxamide] | 20 to 250 µM
Cc1[nH]c2c(-c3ccccc3)c(C(F)(F)F)nn2c(=O)c1C(=O)Nc1nc[nH]n1 [Compound A1040, 5-methyl-7-oxo-3-phenyl-N-(1H-1,2,4-triazol-3-yl)-2-(trifluoromethyl)-4,7-dihydropyrazolo[1,5-a]pyrimidine-6-carboxamide] | 20 to 250 µM
Cc1[nH]c2c(-c3ccccc3)c(C(F)(F)F)nn2c(=O)c1CCNC(=O)c1ccccc1 [Compound B1014, N-(2-(5-methyl-7-oxo-3-phenyl-2-(trifluoromethyl)-4,7-dihydropyrazolo[1,5-a]pyrimidin-6-yl)ethyl)benzamide] | 20 to 250 µM
Cc1[nH]c2c(-c3ccccc3)c(C(F)(F)F)nn2c(=O)c1C(=O)Nc1ccccc1OC(F)(F)F [Compound A1049, 5-methyl-7-oxo-3-phenyl-N-(2-(trifluoromethoxy)phenyl)-2-(trifluoromethyl)-4,7-dihydropyrazolo[1,5-a]pyrimidine-6-carboxamide] | 20 to 250 µM

Now from value to molecule:

IC50 | Structure (SMILES)
> 250 µM | Cc1[nH]c2c(C3CCCC3)c(C(F)(F)F)nn2c(=O)c1Cc1ccccc1 [Compound C1267, 6-benzyl-3-cyclopentyl-5-methyl-2-(trifluoromethyl)pyrazolo[1,5-a]pyrimidin-7(4H)-one]
20 to 250 µM | Cc1[nH]c2c(-c3ccccc3)c(C(F)(F)F)nn2c(=O)c1-c1nnc(N2CCN(C)CC2)o1 [Compound D1058, 5-methyl-6-(5-(4-methylpiperazin-1-yl)-1,3,4-oxadiazol-2-yl)-3-phenyl-2-(trifluoromethyl)pyrazolo[1,5-a]pyrimidin-7(4H)-one]
< 20 µM | Cc1[nH]c2c(-c3ccccc3)c(C(F)(F)F)nn2c(=O)c1C1=N[C@H](C(=O)O)CO1 [Compound C1192, (S)-2-(5-methyl-7-oxo-3-phenyl-2-(trifluoromethyl)-4,7-dihydropyrazolo[1,5-a]pyrimidin-6-yl)-4,5-dihydrooxazole-4-carboxylic acid]
> 250 µM | Cc1[nH]c2c(-c3ccccc3)c(C(F)(F)F)nn2c(=O)c1-c1nnc(-c2ccc(N)cc2)o1 [Compound D1081, 6-(5-(4-aminophenyl)-1,3,4-oxadiazol-2-yl)-5-methyl-3-phenyl-2-(trifluoromethyl)pyrazolo[1,5-a]pyrimidin-7(4H)-one]
20 to 250 µM | COc1cccc(-c2c(C(F)(F)F)nn3c(=O)c(-c4nc5c(OC)cccc5o4)c(C)[nH]c23)c1 [Compound C1120, 6-(4-methoxybenzo[d]oxazol-2-yl)-3-(3-methoxyphenyl)-5-methyl-2-(trifluoromethyl)pyrazolo[1,5-a]pyrimidin-7(4H)-one]
< 20 µM | COc1cccc2oc(-c3c(C)[nH]c4c(-c5cccc(C)c5)c(C(F)(F)F)nn4c3=O)nc12 [Compound C1172, 6-(4-methoxybenzo[d]oxazol-2-yl)-5-methyl-3-(m-tolyl)-2-(trifluoromethyl)pyrazolo[1,5-a]pyrimidin-7(4H)-one]
20 to 250 µM | COc1ccc(-c2nnc(Cc3c(C)[nH]c4c(-c5ccccc5)c(C(F)(F)F)nn4c3=O)o2)cc1 [Compound D1033, 6-((5-(4-methoxyphenyl)-1,3,4-oxadiazol-2-yl)methyl)-5-methyl-3-phenyl-2-(trifluoromethyl)pyrazolo[1,5-a]pyrimidin-7(4H)-one]
20 to 250 µM | Cc1[nH]c2c(-c3ccccc3)c(C(F)(F)F)nn2c(=O)c1-c1nnc(-c2ccccc2N)o1 [Compound D1082, 6-(5-(2-aminophenyl)-1,3,4-oxadiazol-2-yl)-5-methyl-3-phenyl-2-(trifluoromethyl)pyrazolo[1,5-a]pyrimidin-7(4H)-one]
